Residues, ends and D or L forms follow the SMILES beside them.
Key:
S. aureus V8 protease = target: T1, S. aureus V8 protease (Staphylococcus aureus, UniProt P0C1U8); format: in vitro ADME; settings: peptide:protease 40:1, 24 hours, 37° C.
T1 construct: purchased Sigma or Fisher
Protocol: When degraded, no peptide band could be detected on a 5% stacking/18% resolving tricine gel after 2-4 hours incubation at 37° C. Briefly, a solution (100 μL) containing 250 μM peptide and 6.25 μM protease (Sigma or Fisher) in 10 mM PBS buffer (pH 8) was incubated at 37° C. (peptide/protease molar ratio, 40:1). Aliquots (10 μL) of the reaction solutions were taken at 0, 6, and 24 hours and immediately mixed with 10 μL of 2× SDS loading buffer followed by boiling for 5 minutes to stop the reaction. […] After electrophoresis, the gel was stained by Brilliant Blue R-250 (Fisher) and destained to view the peptide bands.

S. aureus USA300 [1] = test: Inhibition of bacterial attachment (XTT); format: cell-based, Staphylococcus aureus; settings: 25 μM
Protocol: (§1) Three types of experiments were conducted to evaluate the anti-biofilm activity of these peptides against S. aureus USA300, which was grown in tryptic soy broth (TSB) media in flat bottom, 96-well, polystyrene microtiter plates (Mishra et al. (2015) RSC Advances 5:59758-59769; Dean et al. (2011) BMC Microbiol., 11:114).
The first experiment measures the ability of the peptide to inhibit bacterial attachment, the initial step for biofilm formation. In short, overnight cultures of S. aureus USA300 were grown in TSB media to an optical density (600 nm) of ˜1.0. 180 μL of this culture was added to each well of the microtiter plates containing 20 μL of 10× peptide solution. The plates are then incubated at 37° C. for 1 hour. Media with bacteria were then pipetted out and chambers were washed with 1×PBS to remove non-adherent cells. The inhibition of biofilms was estimated by XTT [2,3-bis(2-methyloxy-4-nitro-5-sulfophenyl)-2H-tertazolium-5-carboxanilide] assay by following the manufacturer's instructions with modifications. 180 μL of fresh TSB and 20 μL of XTT solution was added to each well and the plates were again incubated for 2 hours at 37° C. Absorbance at 450 nm (only media with XTT containing wells served as the blank) was obtained using a Chromate® microtiter plate reader. […]

S. aureus USA300 [2] = format: cell-based, Staphylococcus aureus
In short: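 USA300 (10^5 CFU/mL) biofilms grown statically in TSB for 24 h at 37° C, washed, then exposed to peptide in fresh TSB for another 24 h at 37° C. Residual biomass read by crystal violet staining at 600 nm; viable cells by 10% XTT, 2 h at 37° C, absorbance 450 nm. Biofilm reduction expressed as percent of untreated wells.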

S. aureus USA300 [3] = test: Killing kinetics by colony counting; format: cell-based, Staphylococcus aureus; settings: 10^5 CFU S. aureus USA300, colony counting
Protocol: Killing kinetic experiments were conducted similar to antibacterial assays described above with the following modifications (Wang et al. (2012) Antimicrob. Agents Chemother., 56:845-856). Aliquots of cultures (10^5 CFU) treated with TetraF2W peptides were taken at 15, 30, 50, 90, and 120 minutes, diluted 100-fold, and plated on Luria-Bertani (LB) agar plates. Colonies were counted after overnight incubation at 37° C.

S. aureus USA300 [4] = test: Confocal microscopy of preformed biofilms, LIVE/DEAD staining; format: cell-based, Staphylococcus aureus; settings: 25 μM
Protocol: S. aureus USA300 (10^5 CFU/mL) was made from exponentially growing bacteria. 1800 μL was added to the chamber of cuvettes (borosilicate cover glass systems), and was incubated for 37° C., 24 hours for biofilm formation. Media was then pipetted out and chambers were washed with 1×PBS to remove non-adhered cells. To disrupt the preformed biofilms, 200 μL of 10× stocks of the peptide was added followed by 1800 μL of TSB. Control cuvettes contained water instead of peptide. The cuvettes were again incubated for another 24 hours at 37° C. Subsequently, the supernatant was pipetted out and the chambers were washed with 1×PBS. For evaluation under confocal microscope the biofilms were stained with […] of LIVE/DEAD® kit (Invitrogen Molecular Probes) according to the manufacturer's instructions. The samples were examined with a confocal laser scanning microscope (Zeiss 710) and the data processed using Zen 2010 software.

S. aureus USA300 [5] = test: Preformed biofilm disruption (XTT); format: cell-based, Staphylococcus aureus; settings: 25 μM, 24 hour preformed biofilms
Protocol: as §1
The third experiment evaluates the ability of the peptide to disrupt the biofilms of S. aureus USA300 formed in 24 hours. S. aureus USA300 (10^5 CFU/mL) in fresh TSB media was made from an exponentially growing culture. 200 μL of this bacterial culture was added to each well of the microtiter plates. The plates are then incubated at 37° C. for 24 hours to allow biofilm formation. Media was then carefully removed followed by washing with sterile 1×PBS to remove any unattached bacteria. Solution containing 20 μL of 10× peptide solution and 180 μL of fresh TSB were added. The plates were again incubated at 37° C. for another 24 hours. The extent of peptide disruption of biofilms was quantified using the same XTT method described above.

T1 sequence (P0C1U8 69-336): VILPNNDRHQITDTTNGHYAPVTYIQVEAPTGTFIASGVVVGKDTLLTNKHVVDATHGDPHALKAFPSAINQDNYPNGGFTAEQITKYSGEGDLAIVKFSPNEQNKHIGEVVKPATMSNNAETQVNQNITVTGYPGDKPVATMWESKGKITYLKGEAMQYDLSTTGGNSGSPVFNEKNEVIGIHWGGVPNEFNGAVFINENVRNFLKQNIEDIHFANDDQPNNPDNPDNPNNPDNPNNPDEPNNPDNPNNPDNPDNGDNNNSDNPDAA

| Compound | stability to S. aureus V8 protease (S. aureus V8 protease) | reduction of adherence of bacterial cells (S. aureus USA300 [1]) [%] | killing in preformed biofilms (XTT) (S. aureus USA300 [2]; 6.2 μM) | killing in preformed biofilms (XTT), words (S. aureus USA300 [2]; 12.5 μM) | time in which all the bacteria were killed (S. aureus USA300 [3]) [min] | killing in 24 hour preformed biofilms (LIVE/DEAD confocal) (S. aureus USA300 [4]) | disruption of preformed biofilms (S. aureus USA300 [5]) [%] |
| --- | --- | --- | --- | --- | --- | --- | --- |
| CC[C@H](C)[C@H](NC(=O)[C@H](CCCCN)NC(=O)[C@H](CCCNC(=N)N)NC(=O)[C@H](CC(C)C)NC(=O)[C@H](Cc1c[nH]c2ccccc12)NC(=O)[C@H](Cc1c[nH]c2ccccc12)NC(=O)[C@@H](N)Cc1c[nH]c2ccccc12)C(=O)N[C@@H](Cc1c[nH]c2ccccc12)C(N)=O [TetraF2W-RK, WWWLRKIW] (H-WWWLRKIW-NH2; N-terminus assumed) | not cut | – | – | – | – | – | – |
| CC[C@H](C)[C@H](NC(=O)[C@H](CCCNC(=N)N)NC(=O)[C@H](CCCNC(=N)N)NC(=O)[C@H](CC(C)C)NC(=O)[C@H](Cc1c[nH]c2ccccc12)NC(=O)[C@H](Cc1c[nH]c2ccccc12)NC(=O)[C@@H](N)Cc1c[nH]c2ccccc12)C(=O)N[C@@H](Cc1c[nH]c2ccccc12)C(N)=O [TetraF2W-RR, WWWLRRIW] (H-WWWLRRIW-NH2; N-terminus assumed) | – | 83 | only the WT was active | nearly all S. aureus USA300 was eliminated | 90 | capable of killing S. aureus USA300 in 24 hour biofilms | ~77 |

Source: patent US20190048052A1, “ANTI-MICROBIAL PEPTIDES AND COATINGS” (Board of Regents of the University of Nebraska, priority 2016, published 2019)
